The source of these data is the NIST ThermoML archive (doi:10.1021/acs.jced.5b00694).

Data set [1] in a line: xn = mol fraction of the nth substance listed. As to conditions: 101 kPa, Liquid; for viscosity: 297.85 K, Cone and plate viscometry; for mass density: 298.15 K, Vibrating tube method.
The conditions of data set [2]: 297.85 K; 101 kPa; Liquid; Cone and plate viscometry.

± gives the expanded uncertainty stated by the source.

By viscosity is commonly meant the internal friction of a fluid under shear. The term mass density denotes mass per unit of volume. On to `O` [water] + CCCC[P+](CCCC)(CCCC)CCCC.O=C[O-], for which, in data set [1] (x1 = 1), the viscosity is recorded as 0.9 ± 0.09 mPa·s and the mass density amounted to 996.8 ± 0.6 kg/m3.

Turning to `O` [water], in data set [2], the viscosity came out at 0.9 ± 0.02 mPa·s.

As for `CCCC[P+](CCCC)(CCCC)CCCC.O=C[O-]` [tetrabutylphosphonium formate] + O, the viscosity in data set [1] (x2 = 0.25) was 356 ± 43 mPa·s; in data set [1] (x2 = 0.5), 146 ± 16 mPa·s; in data set [1] (x2 = 0.6), 97 ± 10 mPa·s; in data set [1] (x2 = 0.74) it was 48 ± 4.9 mPa·s; in data set [1] (x2 = 0.8) it was 35.3 ± 3.6 mPa·s; in data set [1] (x2 = 0.91), 14.4 ± 1.4 mPa·s. Further, the mass density in data set [1] (x2 = 0.25) came to 944 ± 1.2 kg/m3; in data set [1] (x2 = 0.32), 945.2 ± 1.1 kg/m3; in data set [1] (x2 = 0.5) it was 948 ± 1.2 kg/m3; in data set [1] (x2 = 0.6), 950.4 ± 1.4 kg/m3; in data set [1] (x2 = 0.74), 955.5 ± 1 kg/m3; in data set [1] (x2 = 0.8), 959.2 ± 0.9 kg/m3. The mass density in data set [1] (x2 = 0.91) was 974.1 ± 0.7 kg/m3.
